Source: patent publication US20240116985A1, “STAPLED PEPTIDES AND METHODS THEREOF” (priority 2020, published 2024)

Experiment: CHI Log D procedure
Type: physicochemical
Settings: for CHI Log D: pH 7.4; for chromatographic logD: pH 7.4, CHI Log D

Row | SMILES | CHI Log D | chromatographic logD
1 | CC[C@H](C)[C@H](NC(=O)[C@H](CC(=O)O)NC(=O)[C@H](C)NC(C)=O)C(=O)N[C@]1(C)CCN(C)C(=O)OCC=CCCCCC[C@@](C)(C(=O)N[C@@H](Cc2ccccc2)C(=O)N[C@@H](Cc2c[nH]c3ccccc23)C(=O)N[C@@H](Cc2c[nH]cn2)C(N)=O)NC(=O)[C@H](CCC(N)=O)NC(=O)[C@H](Cc2ccccc2)NC(=O)[C@H](C)NC(=O)[C@H](C)NC(=O)[C@H](CCC(C)C)NC(=O)[C@H](CC(=O)O)NC1=O (single isomer, unassigned) [I-70, Ac-Ala-Asp-Ile-RdN-Asp-hLeu-Ala-Ala-Phe-Gln-S7-Phe-Trp-His-NH2] |  | 1.61
2 | CC[C@H](C)[C@H](NC(=O)[C@H](CC(=O)O)NC(=O)[C@H](C)NC(C)=O)C(=O)N[C@]1(C)CCN(C)C(=O)OCC=CCCCCC[C@@](C)(C(=O)N[C@@H](Cc2ccccc2)C(=O)N[C@@H](Cc2c[nH]c3ccccc23)C(=O)N[C@@H](Cc2c[nH]cn2)C(N)=O)NC(=O)[C@H](CCC(N)=O)NC(=O)[C@H](Cc2ccccc2)NC(=O)[C@H](C)NC(=O)[C@H](C)NC(=O)[C@H](CC2CCCCC2)NC(=O)[C@H](CC(=O)O)NC1=O (single isomer, unassigned) [I-72, Ac-Ala-Asp-Ile-RdN-Asp-Cha-Ala-Ala-Phe-Gln-S7-Phe-Trp-His-NH2] |  | 1.72
3 | CC[C@H](C)[C@H](NC(=O)[C@H](CC(=O)O)NC(=O)[C@H](C)NC(C)=O)C(=O)N[C@]1(C)CCN(C)C(=O)OCC=CCCCCC[C@@](C)(C(=O)N[C@@H](Cc2ccccc2)C(=O)N[C@@H](Cc2c[nH]c3ccccc23)C(=O)N[C@@H](Cc2c[nH]cn2)C(N)=O)NC(=O)[C@H](CCC(N)=O)NC(=O)[C@H](Cc2ccccc2)NC(=O)[C@H](C)NC(=O)[C@H](C)NC(=O)[C@H](CC2CCCCC2)NC(=O)[C@H](CC(=O)O)NC1=O (single isomer, unassigned) [I-73, Ac-Ala-Asp-Ile-RdN-Asp-Cha-Ala-Ala-Phe-Gln-S7-Phe-Trp-His-NH2] | 1.723 | 
4 | CC(=O)N[C@@H](Cc1ccccc1)C(=O)N[C@@H](CC(=O)O)C(=O)N[C@@H](C)C(=O)N[C@]1(C)CCCCCCC=CCOC(=O)N2CC[C@@](C(=O)N[C@@H](Cc3ccccn3)C(=O)N[C@@H](Cc3c[nH]c4ccccc34)C(=O)N[C@@H](CCC(N)=O)C(N)=O)(C2)NC(=O)[C@H](C(C)C)NC(=O)[C@H](Cc2ccccc2)NC(=O)[C@H](C)NC(=O)[C@H](C)NC(=O)[C@H](CC(=O)O)NC(=O)[C@H](CC(=O)O)NC1=O (single isomer, unassigned) [I-80, Ac-Phe-Asp-Ala-R8-Asp-Asp-Ala-Ala-Phe-Val-PyrS-2PyrA-Trp-Gln-NH2] |  | 1.04
5 | CC(=O)N[C@@H](Cc1ccccc1)C(=O)N[C@@H](CC(=O)O)C(=O)N[C@@H](C)C(=O)N[C@]1(C)CCCCCCC=CCOC(=O)N2CC[C@@](C(=O)N[C@@H](Cc3cccnc3)C(=O)N[C@@H](Cc3c[nH]c4ccccc34)C(=O)N[C@@H](CCC(N)=O)C(N)=O)(C2)NC(=O)[C@H](C(C)C)NC(=O)[C@H](Cc2ccccc2)NC(=O)[C@H](C)NC(=O)[C@H](C)NC(=O)[C@H](CC(=O)O)NC(=O)[C@H](CC(=O)O)NC1=O (single isomer, unassigned) [I-82, Ac-Phe-Asp-Ala-R8-Asp-Asp-Ala-Ala-Phe-Val-PyrS-3PyrA-Trp-Gln-NH2] |  | 1
6 | CC(=O)N[C@@H](Cc1ccccc1)C(=O)N[C@@H](CC(=O)O)C(=O)N[C@@H](C)C(=O)N[C@]1(C)CCCCCCC=CCOC(=O)N2CC[C@@](C(=O)N[C@@H](Cc3ccncc3)C(=O)N[C@@H](Cc3c[nH]c4ccccc34)C(=O)N[C@@H](CCC(N)=O)C(N)=O)(C2)NC(=O)[C@H](C(C)C)NC(=O)[C@H](Cc2ccccc2)NC(=O)[C@H](C)NC(=O)[C@H](C)NC(=O)[C@H](CC(=O)O)NC(=O)[C@H](CC(=O)O)NC1=O (single isomer, unassigned) [I-85, Ac-Phe-Asp-Ala-R8-Asp-Asp-Ala-Ala-Phe-Val-PyrS-4PyrA-Trp-Gln-NH2] | 0.998 | 
7 | CC(=O)N[C@@H](Cc1ccccc1)C(=O)N[C@@H](CC(=O)O)C(=O)N[C@@H](C)C(=O)N[C@]1(C)CCCCCCC=CCOC(=O)N2CC[C@@](C(=O)N[C@@H](Cc3ccccc3)C(=O)N[C@@H](Cc3c[nH]c4ccccc34)C(=O)N[C@@H](CCC(N)=O)C(N)=O)(C2)NC(=O)[C@H](C(C)C)NC(=O)[C@H](Cc2cccnc2)NC(=O)[C@H](C)NC(=O)[C@H](C)NC(=O)[C@H](CC(=O)O)NC(=O)[C@H](CC(=O)O)NC1=O (single isomer, unassigned) [I-87, Ac-Phe-Asp-Ala-R8-Asp-Asp-Ala-Ala-3PyrA-Val-PyrS-Phe-Trp-Gln-NH2] |  | 1.15
8 | CC(=O)N[C@@H](Cc1ccccc1)C(=O)N[C@@H](CC(=O)O)C(=O)N[C@@H](C)C(=O)N[C@]1(C)CCCCCCC=CCOC(=O)N2CC[C@@](C(=O)N[C@@H](Cc3ccccc3)C(=O)N[C@@H](Cc3c[nH]c4ccccc34)C(=O)N[C@@H](CCC(N)=O)C(N)=O)(C2)NC(=O)[C@H](C(C)C)NC(=O)[C@H](Cc2cccnc2)NC(=O)[C@H](C)NC(=O)[C@H](C)NC(=O)[C@H](CC(=O)O)NC(=O)[C@H](CC(=O)O)NC1=O (single isomer, unassigned) [I-88, Ac-Phe-Asp-Ala-R8-Asp-Asp-Ala-Ala-3PyrA-Val-PyrS-Phe-Trp-Gln-NH2] | 1.239 | 
9 | CC(=O)N[C@@H](Cc1ccccc1)C(=O)N[C@@H](CC(=O)O)C(=O)N[C@@H](C)C(=O)N[C@]1(C)CCCCCCC=CCOC(=O)N2CC[C@@](C(=O)N[C@@H](Cc3ccc(C(N)=O)cc3)C(=O)N[C@@H](Cc3c[nH]c4ccccc34)C(=O)N[C@@H](CCC(N)=O)C(N)=O)(C2)NC(=O)[C@H](C(C)C)NC(=O)[C@H](Cc2ccccc2)NC(=O)[C@H](C)NC(=O)[C@H](C)NC(=O)[C@H](CC(=O)O)NC(=O)[C@H](CC(=O)O)NC1=O (single isomer, unassigned) [I-90, Ac-Phe-Asp-Ala-R8-Asp-Asp-Ala-Ala-Phe-Val-PyrS-4CBMF-Trp-Gln-NH2] |  | 0.958

Further lines, results first:

Row | CHI Log D | chromatographic logD | SMILES
10 | 1.019 |  | CC(=O)N[C@@H](Cc1ccccc1)C(=O)N[C@@H](CC(=O)O)C(=O)N[C@@H](C)C(=O)N[C@]1(C)CCCCCCC=CCOC(=O)N2CC[C@@](C(=O)N[C@@H](Cc3ccc(O)cc3)C(=O)N[C@@H](Cc3c[nH]c4ccccc34)C(=O)N[C@@H](CCC(N)=O)C(N)=O)(C2)NC(=O)[C@H](C(C)C)NC(=O)[C@H](Cc2ccccc2)NC(=O)[C@H](C)NC(=O)[C@H](C)NC(=O)[C@H](CC(=O)O)NC(=O)[C@H](CC(=O)O)NC1=O (single isomer, unassigned) [I-63, Ac-Phe-Asp-Ala-R8-Asp-Asp-Ala-Ala-Phe-Val-PyrS-Tyr-Trp-Gln-NH2]
11 | 1.686 |  | CC[C@H](C)[C@H](NC(=O)[C@H](CC(=O)O)NC(=O)[C@H](C)NC(C)=O)C(=O)N[C@]1(C)CCN(C)C(=O)OCC=CCCCCC[C@@](C)(C(=O)N[C@@H](Cc2ccccc2)C(=O)N[C@@H](Cc2c[nH]c3ccccc23)C(=O)N[C@@H](Cc2c[nH]cn2)C(N)=O)NC(=O)[C@H](CCC(N)=O)NC(=O)[C@H](Cc2ccccc2)NC(=O)[C@H](C)NC(=O)[C@H](C)NC(=O)[C@H](CCC(C)C)NC(=O)[C@H](CC(=O)O)NC1=O (single isomer, unassigned) [I-71, Ac-Ala-Asp-Ile-RdN-Asp-hLeu-Ala-Ala-Phe-Gln-S7-Phe-Trp-His-NH2]
12 |  | 1.33 | CC(=O)N[C@@H](Cc1ccccc1)C(=O)N[C@@H](CC(=O)O)C(=O)N[C@@H](C)C(=O)N[C@]1(C)CCCCCCC=CCOC(=O)N2CC[C@@](C(=O)N[C@@H](Cc3ccccc3)C(=O)N[C@@H](Cc3c[nH]c4ccccc34)C(=O)N[C@@H](CCC(N)=O)C(N)=O)(C2)NC(=O)[C@H](C(C)C)NC(=O)[C@H](CC2CCCCC2)NC(=O)[C@H](C)NC(=O)[C@H](C)NC(=O)[C@H](CC(=O)O)NC(=O)[C@H](CC(=O)O)NC1=O (single isomer, unassigned) [I-74, Ac-Phe-Asp-Ala-R8-Asp-Asp-Ala-Ala-Cha-Val-PyrS-Phe-Trp-Gln-NH2]
13 | 1.376 |  | CC(=O)N[C@@H](Cc1ccccc1)C(=O)N[C@@H](CC(=O)O)C(=O)N[C@@H](C)C(=O)N[C@]1(C)CCCCCCC=CCOC(=O)N2CC[C@@](C(=O)N[C@@H](Cc3ccccc3)C(=O)N[C@@H](Cc3c[nH]c4ccccc34)C(=O)N[C@@H](CCC(N)=O)C(N)=O)(C2)NC(=O)[C@H](C(C)C)NC(=O)[C@H](CC2CCCCC2)NC(=O)[C@H](C)NC(=O)[C@H](C)NC(=O)[C@H](CC(=O)O)NC(=O)[C@H](CC(=O)O)NC1=O (single isomer, unassigned) [I-75, Ac-Phe-Asp-Ala-R8-Asp-Asp-Ala-Ala-Cha-Val-PyrS-Phe-Trp-Gln-NH2]
14 | 1.032 |  | CC(=O)N[C@@H](Cc1ccccc1)C(=O)N[C@@H](CC(=O)O)C(=O)N[C@@H](C)C(=O)N[C@]1(C)CCCCCCC=CCOC(=O)N2CC[C@@](C(=O)N[C@@H](Cc3cccnc3)C(=O)N[C@@H](Cc3c[nH]c4ccccc34)C(=O)N[C@@H](CCC(N)=O)C(N)=O)(C2)NC(=O)[C@H](C(C)C)NC(=O)[C@H](Cc2ccccc2)NC(=O)[C@H](C)NC(=O)[C@H](C)NC(=O)[C@H](CC(=O)O)NC(=O)[C@H](CC(=O)O)NC1=O (single isomer, unassigned) [I-83, Ac-Phe-Asp-Ala-R8-Asp-Asp-Ala-Ala-Phe-Val-PyrS-3PyrA-Trp-Gln-NH2]
15 |  | 0.985 | CC(=O)N[C@@H](Cc1ccccc1)C(=O)N[C@@H](CC(=O)O)C(=O)N[C@@H](C)C(=O)N[C@]1(C)CCCCCCC=CCOC(=O)N2CC[C@@](C(=O)N[C@@H](Cc3ccncc3)C(=O)N[C@@H](Cc3c[nH]c4ccccc34)C(=O)N[C@@H](CCC(N)=O)C(N)=O)(C2)NC(=O)[C@H](C(C)C)NC(=O)[C@H](Cc2ccccc2)NC(=O)[C@H](C)NC(=O)[C@H](C)NC(=O)[C@H](CC(=O)O)NC(=O)[C@H](CC(=O)O)NC1=O (single isomer, unassigned) [I-84, Ac-Phe-Asp-Ala-R8-Asp-Asp-Ala-Ala-Phe-Val-PyrS-4PyrA-Trp-Gln-NH2]
16 |  | 1.32 | CC(=O)N[C@@H](Cc1ccccc1)C(=O)N[C@@H](CC(=O)O)C(=O)N[C@@H](C)C(=O)N[C@]1(C)CCCCCCC=CCOC(=O)N2CC[C@@](C(=O)N[C@@H](CC3CCCC3)C(=O)N[C@@H](Cc3c[nH]c4ccccc34)C(=O)N[C@@H](CCC(N)=O)C(N)=O)(C2)NC(=O)[C@H](C(C)C)NC(=O)[C@H](Cc2ccccc2)NC(=O)[C@H](C)NC(=O)[C@H](C)NC(=O)[C@H](CC(=O)O)NC(=O)[C@H](CC(=O)O)NC1=O (single isomer, unassigned) [I-93, Ac-Phe-Asp-Ala-R8-Asp-Asp-Ala-Ala-Phe-Val-PyrS-CypA-Trp-Gln-NH2]
